According to the NIST ThermoML archive (doi:10.1016/j.jct.2012.08.033):

Assay: xn = mol fraction of the nth substance listed
Settings: Liquid, vibrating tube

C1CCOC1 [tetrahydrofuran] + O
mass density [kg/m3]
Settings	78.5 kPa	100.7 kPa
293.24 K, x2 = 0.3407	907.81	907.93
293.24 K, x2 = 0.988	995.8	995.84
293.25 K, x2 = 0.9826	994.97	994.99
293.25 K, x2 = 0.9921	996.53	996.6
293.26 K, x2 = 0.0208	888.12	888.29
293.26 K, x2 = 0.0404	889.02	889.18
293.26 K, x2 = 0.0872	892.05	892.21
293.26 K, x2 = 0.9418	990.31	990.26
293.26 K, x2 = 0.9519	991.46	991.41
293.26 K, x2 = 0.9573	992.11	992.05
293.26 K, x2 = 0.9709	993.71	993.65
293.26 K, x2 = 0.9723	993.83	993.77
293.27 K, x2 = 0.0269	888.46	888.63
293.27 K, x2 = 0.0429	889.18	889.35
293.27 K, x2 = 0.0593	890.14	890.31
293.27 K, x2 = 0.6092	934.46	934.53
293.28 K, x2 = 0.8857	981.21	981.18
298.21 K, x2 = 0.3407	902.44	902.65
298.22 K, x2 = 0.0872	886.71	886.95
298.22 K, x2 = 0.988	994.42	994.44
298.22 K, x2 = 0.9921	995.23	995.24
298.23 K, x2 = 0.0269	883.01	883.22
298.23 K, x2 = 0.9418	987.77	987.8
298.23 K, x2 = 0.9723	992.08	992.11
298.23 K, x2 = 0.9826	993.47	993.49
298.24 K, x2 = 0.0208	882.73	882.93
298.24 K, x2 = 0.0593	884.65	884.9
298.24 K, x2 = 0.9573	989.99	990.02
298.24 K, x2 = 0.9709	991.93	991.95
298.25 K, x2 = 0.0429	883.9	883.99
298.25 K, x2 = 0.6092	929.43	929.58
298.25 K, x2 = 0.9519	989.15	989.18
298.26 K, x2 = 0.8857	977.6	977.65
298.29 K, x2 = 0.0404	883.74	883.83
303.07 K, x2 = 0.3407	897.21	897.4
303.09 K, x2 = 0.9418	985.17	985.19
303.1 K, x2 = 0.0269	877.63	877.86
303.1 K, x2 = 0.0872	881.49	881.71
303.1 K, x2 = 0.9519	986.82	986.81
303.1 K, x2 = 0.988	993	992.98
303.1 K, x2 = 0.9921	993.8	993.78
303.11 K, x2 = 0.0404	878.23	878.45
303.11 K, x2 = 0.0593	879.35	879.58
303.11 K, x2 = 0.9573	987.79	987.78
303.11 K, x2 = 0.9723	990.22	990.21
303.11 K, x2 = 0.9826	991.87	991.85
303.12 K, x2 = 0.0208	877.38	877.61
303.12 K, x2 = 0.6092	924.49	924.62
303.12 K, x2 = 0.9709	990.08	990.06
303.13 K, x2 = 0.0429	878.4	878.63
303.13 K, x2 = 0.8857	974.05	974.07
308.19 K, x2 = 0.3407	891.62	891.86
308.22 K, x2 = 0.0872	875.87	876.14
308.22 K, x2 = 0.9418	982.23	982.27
308.22 K, x2 = 0.9519	984.2	984.24
308.22 K, x2 = 0.9921	991.99	992.01
308.23 K, x2 = 0.0269	871.92	872.19
308.23 K, x2 = 0.0404	872.54	872.75
308.23 K, x2 = 0.0593	873.61	873.88
308.23 K, x2 = 0.988	991.08	991.1
308.24 K, x2 = 0.0208	871.65	871.93
308.24 K, x2 = 0.9723	988.08	988.11
308.24 K, x2 = 0.9826	989.93	989.95
308.25 K, x2 = 0.6092	919.21	919.38
308.25 K, x2 = 0.8857	970.11	970.18
308.25 K, x2 = 0.9573	985.24	985.28
308.25 K, x2 = 0.9709	987.99	987.82
308.26 K, x2 = 0.0429	872.71	872.89
313.26 K, x2 = 0.3407	886.03	886.33
313.28 K, x2 = 0.0269	866.21	866.56
313.28 K, x2 = 0.0872	869.29	869.63
313.28 K, x2 = 0.9418	979.18	979.28
313.29 K, x2 = 0.0593	867.9	868.25
313.29 K, x2 = 0.9519	981.33	981.43
313.29 K, x2 = 0.9921	990.02	990.1
313.3 K, x2 = 0.0404	866.86	867.21
313.3 K, x2 = 0.988	989.08	989.16
313.31 K, x2 = 0.9826	987.78	987.87
313.32 K, x2 = 0.6092	913.96	914.2
313.32 K, x2 = 0.9723	985.71	985.8
313.33 K, x2 = 0.9709	985.46	985.55
313.34 K, x2 = 0.0208	866.07	866.42
313.34 K, x2 = 0.8857	966.2	966.33
313.34 K, x2 = 0.9573	982.55	982.65
313.35 K, x2 = 0.0429	867.1	867.44
